The nature of assay [1]: Pregnancy maintenance test. It counts as in vivo.
A short description of the next assay: Hershberger Test. It counts as in vivo.
In assay [2] the target is T1, androgen receptor of the rat prostate (Rattus norvegicus, UniProt P15207).
T1 construct: from tissue; host or cells: rat prostate
T1 sequence (P15207 1-902): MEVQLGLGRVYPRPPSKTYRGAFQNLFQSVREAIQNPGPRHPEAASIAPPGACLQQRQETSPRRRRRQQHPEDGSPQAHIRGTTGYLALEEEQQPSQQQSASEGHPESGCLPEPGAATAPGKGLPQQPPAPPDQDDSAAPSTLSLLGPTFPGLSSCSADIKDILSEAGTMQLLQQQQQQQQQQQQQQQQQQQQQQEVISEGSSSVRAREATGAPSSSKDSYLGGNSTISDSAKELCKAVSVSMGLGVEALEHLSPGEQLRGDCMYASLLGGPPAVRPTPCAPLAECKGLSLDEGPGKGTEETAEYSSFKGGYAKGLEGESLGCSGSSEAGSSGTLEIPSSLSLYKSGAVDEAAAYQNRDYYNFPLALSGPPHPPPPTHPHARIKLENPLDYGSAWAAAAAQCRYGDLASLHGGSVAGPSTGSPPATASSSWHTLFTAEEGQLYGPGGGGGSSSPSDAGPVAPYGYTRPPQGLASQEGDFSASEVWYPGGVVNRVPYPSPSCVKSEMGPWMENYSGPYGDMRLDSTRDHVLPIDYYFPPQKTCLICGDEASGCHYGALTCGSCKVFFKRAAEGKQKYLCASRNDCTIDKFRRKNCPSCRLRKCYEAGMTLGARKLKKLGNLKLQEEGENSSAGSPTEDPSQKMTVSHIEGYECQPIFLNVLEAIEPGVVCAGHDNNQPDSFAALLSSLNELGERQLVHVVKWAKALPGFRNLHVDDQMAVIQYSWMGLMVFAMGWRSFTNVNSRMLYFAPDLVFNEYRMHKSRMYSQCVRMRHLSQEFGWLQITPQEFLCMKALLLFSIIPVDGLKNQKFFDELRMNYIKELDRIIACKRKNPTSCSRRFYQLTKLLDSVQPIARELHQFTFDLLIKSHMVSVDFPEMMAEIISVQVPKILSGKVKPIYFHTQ
The assay can be described thus: Binding to the androgen receptor of the rat prostate (reference substance R 1881). Conditions: relative to reference substance R 1881 (17β-hydroxy-17α-methyl-estra-4,9,11-trien-3-one).

Assay [3] concerns the target T2, progesterone receptor of the rabbit uterus (Oryctolagus cuniculus, UniProt P06186).
T2 construct: from tissue; host or cells: rabbit uterus
T2 sequence (P06186 1-930): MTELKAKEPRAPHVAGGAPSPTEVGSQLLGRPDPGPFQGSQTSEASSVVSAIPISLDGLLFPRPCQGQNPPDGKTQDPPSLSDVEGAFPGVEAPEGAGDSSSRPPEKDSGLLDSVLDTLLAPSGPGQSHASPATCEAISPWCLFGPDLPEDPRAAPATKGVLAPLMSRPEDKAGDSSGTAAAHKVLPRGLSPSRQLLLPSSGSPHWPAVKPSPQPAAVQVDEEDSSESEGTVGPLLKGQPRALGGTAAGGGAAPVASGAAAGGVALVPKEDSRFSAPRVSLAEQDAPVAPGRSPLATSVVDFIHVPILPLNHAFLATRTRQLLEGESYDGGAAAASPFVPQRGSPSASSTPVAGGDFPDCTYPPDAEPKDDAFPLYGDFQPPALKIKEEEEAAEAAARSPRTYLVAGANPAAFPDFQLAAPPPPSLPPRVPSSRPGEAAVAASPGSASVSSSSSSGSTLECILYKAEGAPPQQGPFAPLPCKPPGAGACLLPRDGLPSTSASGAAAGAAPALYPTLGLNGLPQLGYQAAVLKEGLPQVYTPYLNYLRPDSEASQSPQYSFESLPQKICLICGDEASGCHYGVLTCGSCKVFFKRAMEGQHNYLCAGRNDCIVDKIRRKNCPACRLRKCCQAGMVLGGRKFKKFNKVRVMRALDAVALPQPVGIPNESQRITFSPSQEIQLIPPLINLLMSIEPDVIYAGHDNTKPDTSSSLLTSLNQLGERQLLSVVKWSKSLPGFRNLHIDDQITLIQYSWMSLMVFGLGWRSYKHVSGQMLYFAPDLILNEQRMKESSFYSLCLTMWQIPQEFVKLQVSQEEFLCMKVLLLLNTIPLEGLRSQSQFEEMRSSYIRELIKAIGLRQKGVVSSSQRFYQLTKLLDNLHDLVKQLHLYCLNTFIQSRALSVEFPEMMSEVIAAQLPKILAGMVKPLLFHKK
Kind of assay: Binding to the progesterone receptor of the rabbit uterus (reference substance progesterone).

Structures are written as SMILES.

Regarding `C[C@]12CCC(=O)C=C1CC[C@@H]1[C@@H]2CC[C@]2(C)[C@@H](O)C[C@@H]3C[C@]312` [J 1193, 17β-hydroxy-14α,15α-methylen-androst-4-en-3-one], in assay [1], the gestagenic action result is given as “very little gestagenic action”. Besides, the androgenic activity entry in “Hershberger Test” was “significant androgenic activity”. In assay [2], the “binding to the androgen receptor” value is on record as 24±3%. In addition, the “binding to the progesterone receptor” value in assay [3] is “virtually no binding”.

For the origin of these results see US6534490B1, “Unsaturated 14, 15-cyclopropanoandrostanes, method for the production thereof and pharmaceutical preparations containing said compounds” (Jenapharm GmbH & Co. KG., priority 1998, dated 2003).
